In ChEMBL document CHEMBL4665709, “Rational Avoidance of Protease Cleavage Sites and Symmetrical End-Tagging Significantly Enhances the Stability and Therapeutic Potential of Antimicrobial Peptides” (J Med Chem, 2020):
Activity calls are given as the source filed them. The rule behind the calls is not given here. Where a SMILES comes first, the peptide text is derived from it.

Key:
[1] = Therapeutic index, ratio of MHC for human RBC to geometric mean of peptide MIC for Salmonella choleraesuis 503; type: toxicity; conditions: human red blood cells (RBC), read-out: TI
[2] = Cytotoxicity against mouse RAW264.7 cells assessed as cell viability at 128 uM by MTT assay relative to control; type: cell-based; conditions: read-out: Activity
[3] = Stability of compound assessed as chymotrypsin (unknown origin)-mediated drug degradation after 8 hrs by SDS-PAGE analysis; type: ADME; conditions: human
Cell membrane [4] = experiment: Induction of structural changes in membrane of Escherichia coli ATCC 25922 assessed as membrane rupture at 1 times MIC after 1 hr by transmission electron microscopy; type: subcellular
Cell membrane [5] = experiment: Induction of structural changes in membrane of Escherichia coli ATCC 25922 assessed as sparsity at 1 times MIC after 1 hr by transmission electron microscopy; type: subcellular

For CC[C@H](C)[C@H](N)C(=O)N[C@H](C(=O)N[C@H](C(=O)N[C@@H](CS)C(=O)N[C@@H](CCCNC(=N)N)C(=O)N[C@@H](CCCCN)C(=O)N1CCC[C@H]1C(=O)N[C@H](C(=O)N[C@H](C(=O)N[C@@H](CS)C(=O)N[C@@H](CCCNC(=N)N)C(=O)N[C@@H](CCCCN)C(=O)N1CCC[C@H]1C(=O)N[C@H](C(=O)N[C@H](C(=O)N[C@@H](CS)C(=O)N[C@@H](CCCNC(=N)N)C(=O)N[C@@H](CCCCN)C(=O)N1CCC[C@H]1C(=O)N[C@H](C(=O)N[C@H](C(=O)N[C@@H](CS)C(=O)N[C@@H](CCCNC(=N)N)C(=O)N[C@@H](CCCCN)C(=O)N1CCC[C@H]1C(=O)N[C@H](C(=O)N[C@H](C(=O)N[C@H](C(N)=O)[C@@H](C)CC)[C@@H](C)CC)[C@@H](C)CC)[C@@H](C)CC)[C@@H](C)CC)[C@@H](C)CC)[C@@H](C)CC)[C@@H](C)CC)[C@@H](C)CC)[C@@H](C)CC)[C@@H](C)CC (H-IIICRKPIICRKPIICRKPIICRKPIII-NH2), the selectivity ratio [1] was 57, the viability at 128 µM [2] was over 90% and the Stabilty [3] was “Stable”. The Activity (Cell membrane [4]) was “Active” and the Activity (Cell membrane [5]) was “Active”.
